Measurements: PubChem BioAssay (NCI)
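Cells were grown in 96-well plates and exposed to each compound for 48 hours at five concentrations; endpoints were interpolated linearly between bracketing concentrations, or set to the highest concentration if not reached. GI50: concentration for 50% inhibition of growth. TGI denotes the concentration required for complete inhibition of growth.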

Assays:
Experiment in all cases: growth of human tumour cells (NCI), 48 h
BT-549 breast = system: BT-549 breast
MDA-N = system: MDA-N
HCT-116 colon = system: HCT-116 colon
MDA-MB-231 breast = system: MDA-MB-231 breast
OVCAR-8 ovarian = system: OVCAR-8 ovarian
A549 NSCLC = system: A549 NSCLC
SNB-19 CNS = system: SNB-19 CNS
SW-620 colon = system: SW-620 colon
UO-31 renal = system: UO-31 renal
SNB-75 CNS = system: SNB-75 CNS
HOP-62 NSCLC = system: HOP-62 NSCLC

Compound	TGI (BT-549 breast) [µM]	TGI (MDA-N) [µM]	TGI (HCT-116 colon) [µM]	TGI (MDA-MB-231 breast) [µM]	TGI (OVCAR-8 ovarian) [µM]	TGI (A549 NSCLC) [µM]	TGI (SNB-19 CNS) [µM]	TGI (SW-620 colon) [µM]	TGI (UO-31 renal) [µM]	TGI (SNB-75 CNS) [µM]	TGI (HOP-62 NSCLC) [µM]	GI50 (HOP-62 NSCLC) [µM]	GI50 (MDA-MB-231 breast) [µM]	GI50 (OVCAR-8 ovarian) [µM]	GI50 (A549 NSCLC) [µM]	GI50 (UO-31 renal) [µM]
Cc1ccc(OCC2OC(n3cnc4c(N(C)C)nc(Br)nc43)CC2Oc2ccc(C)cc2)cc1 (stereo unspecified)	> 100	> 100	> 100	> 100	> 100	> 100	> 100	> 100	> 100							
C=C1C(=O)OC2(C)C3CCC(C3)C12 (stereo unspecified)			> 100		> 100	> 100	> 100	> 100	> 100	> 100	> 100					
O=C(/C=C/c1cccc(Br)c1)c1cccs1		22.3	18	38.8	37.6	36.2	28.3	27.5	25.7	28.2	73.8					
CCOC(=O)c1cc(C(=O)c2ccccc2)n2nc(-c3ccc(Cl)cc3)ccc12	35.4	> 100	> 100	> 100		30.8	34.8	> 100	27.1		34.8					
COc1cccc(-c2ccc3c4c2O[C@H]2c5[nH]c6ccccc6c5C[C@@]5(O)[C@@H](C3)N(CC3CC3)CC[C@]425)c1	15.9	3.28	2.99	3.44	3.11	3.36	4.23	4.77	3.1		3.12					
FC(F)(F)c1ccccc1N1CCN(c2nc(-c3cccs3)nc3ccc(Br)cc23)CC1	> 100		> 100	74	> 100	> 100	> 100	> 100	> 100	> 100	> 100					
C/C(=N/NC(=S)Nc1ccccc1Cl)c1cccc(/C(C)=N\NC(=S)Nc2ccccc2Cl)n1		> 100	49.4	75.2	81.8	> 100	> 100	> 100	> 100	> 100	> 100					
CN1C(=S)C(c2ccccc2)Sc2ccccc21 (stereo unspecified)	> 100	> 100	> 100	> 100	> 100	> 100	> 100		> 100	> 100	> 100					
Cn1ccn2c3nc4ccccc4nc3c(=O)c(C#N)c12	> 100	> 100	> 100	> 100	> 100	> 100	> 100	> 100	> 100	> 100						
COC(=O)C1=C(C)NC2(O)C=CC(=O)C3C(=O)N(c4ccccc4)C(=O)C132 (stereo unspecified)	> 100		> 100	> 100	> 100	> 100	> 100	> 100	> 100	> 100	> 100					
Cc1c(C(=O)N2CCN(c3ccc([N+](=O)[O-])cc3)CC2)[n+](=O)c2cc(Cl)c(Cl)cc2n1[O-]	33	> 100	40.5	46.7	33	48.5	42.1	> 100			38.2					
CCCCc1c(C(=O)OC(C)(C)C)cc(C#Cc2cc(C(=O)OC(C)(C)C)c(CCCC)c(C(=O)OC(C)(C)C)c2)cc1C(=O)OC(C)(C)C	> 100	> 100	> 100	> 100		> 100	> 100		> 100	> 100	> 100					
O=C(O)CCCCCOc1cccnc1/C=N/NC1=NCCN1			> 100		> 100	> 100	> 100	> 100	> 100	91.2	> 100					
CCC1C(c2cccc(OC)c2O)c2cc3c(cc2OC1N1CCCC1)OCO3 (stereo unspecified)		19.7	21.2		89.9	54.7	46.9	58.8	39.5	92.4	46.3					
CCCCCC(=O)c1ccc2[nH]c3c(C)cc([N+](=O)[O-])c(C)c3c2c1			> 100		> 100	> 100	> 100	> 100	> 100	> 100	> 100					
Cc1ccnc2[nH]c(-c3cccc(Cl)c3)cc(=O)c12				0.0861	> 100	> 100	> 100	> 100	> 70.2		> 74.8					
O=C(Nc1cccc(C(F)(F)F)c1)O/N=C(/Cl)CCl		> 100	> 100	39	> 100	> 100	> 100	> 100	> 100	> 100	> 100					
COc1cc(C2SCC(=O)N2c2ccc(-n3c(-c4ccccc4)nc4ccccc4c3=O)cc2)ccc1O (stereo unspecified)	> 100	> 100	> 100	> 100	> 100	> 100	> 100	> 100	97.7		> 100					
O=c1[nH]nc(-c2ccccc2)n1/N=C/c1c[nH]c2ccccc12		> 100	> 100	> 100	> 100	> 100	> 100	> 100	> 100		> 100					
COc1ccccc1-c1cc(=O)c2ccccc2[nH]1			> 100		> 100	> 100	> 100	> 100	> 100	> 100	> 100					
CC(C)[C@@H]1CC[C@@H](C)C[C@H]1OC(=O)/C=C1/C2C=CC(O2)C1C(=O)O[C@@H]1C[C@H](C)CC[C@H]1C(C)C (stereo partly specified)		> 100	> 100	> 100	> 100	> 100	> 100	> 100	> 100	> 100	> 100					
CC(C)CCC[C@@H](C)[C@H]1CCC2C3CC=C4C[C@@H](Oc5c6ccccc6nc6ccccc56)CCC4C3CCC21 (stereo partly specified)	> 50	> 50	> 50	> 50	> 50	> 50	> 50	> 50	> 50		> 50					

Compound	TGI (BT-549 breast) [µM]	TGI (MDA-N) [µM]	TGI (HCT-116 colon) [µM]	TGI (MDA-MB-231 breast) [µM]	TGI (OVCAR-8 ovarian) [µM]	TGI (A549 NSCLC) [µM]	TGI (SNB-19 CNS) [µM]	TGI (SW-620 colon) [µM]	TGI (UO-31 renal) [µM]	TGI (SNB-75 CNS) [µM]	TGI (HOP-62 NSCLC) [µM]	GI50 (HOP-62 NSCLC) [µM]	GI50 (MDA-MB-231 breast) [µM]	GI50 (OVCAR-8 ovarian) [µM]	GI50 (A549 NSCLC) [µM]	GI50 (UO-31 renal) [µM]
CCOC(=O)Oc1cc2c(c(OC)c1OC)-c1ccc(SC)c(=O)cc1C(NC(=O)C(F)(F)F)CC2 (stereo unspecified)		< 0.001				> 100	> 100	> 100	75.6	> 100	> 100					
CCOc1cc(NC(C)=O)ccc1C(=O)NN1C(=O)C(Oc2ccccc2)C1c1ccccc1 (stereo unspecified)	> 100	> 100	> 100	> 100	> 100			> 100		> 100	> 100					
COC(=O)c1ccccc1C#CC#Cc1ccccc1C(=O)OC	> 10	> 10	> 10	> 10	> 10	> 10	> 10	> 10	> 10		> 10					
COC(=O)C(C)(N=Cc1ccccc1)c1ccccc1 (stereo unspecified)		> 100	> 100	> 100	> 100	> 100	> 100	> 100	> 100	> 100	> 100					
O=C(Nc1nc2c(=O)[nH]cnc2s1)c1ccccc1	> 100		> 100		> 100	> 100	> 100	> 100	> 100	> 100	> 100					
N=c1nnc(=O)c2c(s1)-n1ncc(C(=O)O)c1NN2			> 100		> 100	> 100	> 100	> 100	> 100	> 100	> 100					
COc1cc2c(c(OC)c1OC)-c1ccc(SC)c(=O)cc1[C@@H](OC(C)=O)CC2	> 100		> 100	> 100	> 100	> 100	> 100	> 100	> 52.5	> 82.1	> 100					
Cc1ccsc1/C=N/Nc1cc(C)c2cccc(C)c2n1	> 100	> 100			> 100	> 100	> 100	> 100		> 100	> 100					
CCOc1ccc(/C=C(\Cl)c2ccc(OC)c(OC)c2)cc1			> 100		> 100	> 100	> 100	> 100	> 100	> 100	> 100					
O=[N+]([O-])/C(C(Cl)=C(Cl)Cl)=C1\NCCO1		> 100	> 100	> 100	> 100	> 100	> 100		> 100		> 100					
CN(C(=O)Cc1ccc(Cl)c(Cl)c1)[C@H]1CCCC[C@@H]1[N+]1(C)CCCC1	> 100	> 100	> 100	> 100	> 100	> 100	> 100	> 100	> 100		> 100					
CC1(C)N=C(C(N)=O)c2ncn(CCO)c2N1		> 100	> 100	> 100	> 100	> 100	> 100	> 100			> 100					
O=C1O/C(=C(\Br)c2cccc3ccccc23)c2ccccc21			> 61.9		> 62.3	35.9		> 58.3	> 56.1	> 87.2	> 100					
CC(=O)[C@@H]1CCC=C2CC[C@]3(C)[C@@H](CC[C@@H]4[C@@]5(C)CCCNC(C)(C)[C@@H]5CC[C@]43C)[C@H]21				3.35	3.94	3.73			2.89		3.4	1.82	1.81	1.99	2.02	1.52
Cc1cc(CNC(=O)OCc2ccccc2)c(C)c2c1Oc1ccccc1O2	> 100		> 100	> 60.5	58.5	97.7	> 92.9	> 100	> 100	36.3	53.3					
CC(C)SC(C)(NC(=O)C1C(C)(C)CCC1(C)C)C(=O)O (stereo unspecified)		> 100	> 100	> 100		> 100	> 100	> 100	> 100	> 100	> 100					
Cc1sc2nc(-c3cc([N+](=O)[O-])c(Cl)cc3Cl)c(/C=N/N=C(N)N)n2c1C	12		> 100	34.6	31.6	> 100		69.3	26.4		> 100					
CCCCCCCC(=O)OC(CBr)COC(=O)C(C)(C)C (stereo unspecified)			> 100		> 100	> 100	> 100	> 100	> 100	68.8	> 100					
CCCCCCCCCCCCCCCCCCNc1ccn(C2OC(COP(=O)(O)OCC3CCC(n4cnc5c(=O)[nH]cnc54)O3)C(O)C2O)c(=O)n1 (stereo unspecified)	> 100	> 100	> 100		> 100	> 100	> 100	> 100	> 100	> 100	> 100					
O=C(Nc1nc2ccccc2n1Cc1ccccc1)NC12CC3CC(CC(C3)C1)C2			> 100		> 100	> 100	> 100	> 100	> 100	49.8	> 100					
COc1ccc(S(=O)(=O)O)cc1-n1nc(C(=O)Nc2ccccc2)n[n+]1-c1cc(S(=O)(=O)[O-])ccc1OC		> 100	> 100	> 100		> 100	> 100	> 100	> 100	> 100	> 100					
O=C(NCCC(F)(F)C(F)(F)C(F)(F)C(F)(F)F)NC1OC(CO)C(O)C(O)C1O (stereo unspecified)	> 100	> 100	> 100	> 100		> 100	> 100	> 100	> 100	> 100	> 100					
